Source: ChEMBL document CHEMBL1144524, “Discovery of 7alpha-substituted dihydrotestosterones as androgen receptor pure antagonists and their structure-activity relationships” (Bioorg Med Chem, 2007)
Active and inactive are the calls of the source. No cut-off for these calls is given here.

Tests used:
Androgen receptor [1] = target: T1, Androgen receptor (Homo sapiens, UniProt P10275); test: biochemical
T1 sequence (P10275 whole entry): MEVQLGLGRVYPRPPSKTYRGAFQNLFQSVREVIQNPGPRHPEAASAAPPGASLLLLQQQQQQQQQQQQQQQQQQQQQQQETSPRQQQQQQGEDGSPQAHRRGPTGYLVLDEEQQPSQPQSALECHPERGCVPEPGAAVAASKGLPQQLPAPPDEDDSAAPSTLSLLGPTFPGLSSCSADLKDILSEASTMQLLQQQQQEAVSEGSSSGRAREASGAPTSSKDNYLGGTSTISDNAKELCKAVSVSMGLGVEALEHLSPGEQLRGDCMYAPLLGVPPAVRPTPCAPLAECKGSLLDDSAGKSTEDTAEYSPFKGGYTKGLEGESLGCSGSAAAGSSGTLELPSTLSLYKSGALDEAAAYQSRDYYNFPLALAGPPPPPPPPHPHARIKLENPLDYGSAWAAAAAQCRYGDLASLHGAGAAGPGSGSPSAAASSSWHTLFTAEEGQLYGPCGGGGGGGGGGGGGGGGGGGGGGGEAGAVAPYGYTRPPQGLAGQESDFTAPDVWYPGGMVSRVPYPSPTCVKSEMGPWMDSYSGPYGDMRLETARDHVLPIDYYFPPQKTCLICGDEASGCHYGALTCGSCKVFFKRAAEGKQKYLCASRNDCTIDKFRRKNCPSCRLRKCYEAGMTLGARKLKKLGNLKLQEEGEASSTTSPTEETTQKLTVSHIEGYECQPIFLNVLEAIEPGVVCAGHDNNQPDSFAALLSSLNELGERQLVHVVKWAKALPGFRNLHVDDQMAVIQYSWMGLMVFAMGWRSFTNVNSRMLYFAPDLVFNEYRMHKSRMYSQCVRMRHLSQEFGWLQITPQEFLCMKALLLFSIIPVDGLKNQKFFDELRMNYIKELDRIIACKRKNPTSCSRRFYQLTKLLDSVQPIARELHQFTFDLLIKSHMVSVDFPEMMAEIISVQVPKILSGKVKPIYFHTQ
Description: Displacement of [3H]mibolerone from androgen receptor expressed in CHOK1 cells

[2] = target: T2, Androgen receptor (Homo sapiens) (UniProt P10275); conditions: HeLa
T2 sequence (whole entry): T1 sequence (P10275 whole entry)
Description: Agonist activity at androgen receptor expressed in HeLa cells assessed as effect on dihydrotestosterone-induced transcriptional activity by reporter gene assay

Androgen receptor [3] = target: T1, Androgen receptor
Description: Antagonist activity at androgen receptor expressed in HeLa cells assessed as inhibition of dihydrotestosterone-induced transcriptional activity by reporter gene assay

Mus musculus [4] = test: Effect on subcutaneously dosed seminal vesicle wet weight in mouse; assay type: functional, organism-based
Mus musculus [5] = test: Effect on po dosed seminal vesicle wet weight in mouse; assay type: functional, organism-based

Row | Compound | IC50 (Androgen receptor [1]) | FI5 [2] | IC50 (Androgen receptor [3]) | Activity (Mus musculus [4]) | Activity (Mus musculus [5])
1 | CCCCCCNC(=O)CCCCCCCC1C[C@H]2CC(=O)CC[C@]2(C)[C@H]2CC[C@]3(C)[C@@H](O)CC[C@H]3[C@H]12 (some centres not stated) | 2100 nM | > 10000 nM | 6600 nM |  | 
2 | C[C@]12CCC(=O)C[C@@H]1CC(CCCCCCCC(N)=O)[C@@H]1[C@@H]2CC[C@]2(C)[C@@H](O)CC[C@@H]12 (some centres not stated) | 260 nM | 2400 nM | 450 nM |  | 
3 | CCCCN(C)C(=O)CCCCCCCC[C@@H]1CC2CC(=O)CC[C@]2(C)[C@H]2CC[C@]3(C)[C@@H](O)CC[C@H]3[C@H]12 (some centres not stated) | 550 nM | 550 nM | 3400 nM |  | 
4 | CCCN(C)C(=O)CCCCCCCC1C[C@H]2CC(=O)CC[C@]2(C)[C@H]2CC[C@]3(C)[C@@H](O)CC[C@H]3[C@H]12 (some centres not stated) | 300 nM | > 10000 nM | 1100 nM |  | 
5 | CCNC(=O)CCCCCCCC1C[C@H]2CC(=O)CC[C@]2(C)[C@H]2CC[C@]3(C)[C@@H](O)CC[C@H]3[C@H]12 (some centres not stated) | 1500 nM | > 10000 nM | 940 nM |  | 
6 | CN(C)C(=O)CCCCCCCC1C[C@H]2CC(=O)CC[C@]2(C)[C@H]2CC[C@]3(C)[C@@H](O)CC[C@H]3[C@H]12 (some centres not stated) | 260 nM | > 10000 nM | 190 nM | Active | Active
7 | CCCCN(C)C(=O)CCCCCCCCCC[C@@H]1CC2CC(=O)CC[C@]2(C)[C@H]2CC[C@]3(C)[C@@H](O)CC[C@H]3[C@H]12 (some centres not stated) | 1900 nM | 1900 nM | 1300 nM |  | 
8 | CCCCN(C)C(=O)CCCCCCCC1C[C@H]2CC(=O)CC[C@]2(C)[C@H]2CC[C@]3(C)[C@@H](O)CC[C@H]3[C@H]12 (some centres not stated) | 280 nM | > 10000 nM | 340 nM |  | 
9 | CCCCNC(=O)CCCCCCCC1C[C@H]2CC(=O)CC[C@]2(C)[C@H]2CC[C@]3(C)[C@@H](O)CC[C@H]3[C@H]12 (some centres not stated) |  | 1600 nM | 6300 nM |  | 
10 | C[C@]12CCC(=O)C[C@@H]1CC(CCCCCCCC(=O)N1CCCC1)[C@@H]1[C@@H]2CC[C@]2(C)[C@@H](O)CC[C@@H]12 (some centres not stated) | 350 nM | > 10000 nM | 300 nM |  | 
11 | C[C@]12CC[C@H]3[C@@H]([C@H](CCCCCCCCCCCCC[S+]([O-])CCCC(F)(F)C(F)(F)F)CC4CC(=O)CC[C@@]43C)[C@@H]1CC[C@@H]2O (some centres not stated) | > 10000 nM | > 10000 nM | 10000 nM |  | 
12 | C[C@]12CC[C@H]3[C@@H]([C@H](CCCCCCC[S+]([O-])CCCC(F)(F)C(F)(F)F)CC4CC(=O)CC[C@@]43C)[C@@H]1CC[C@@H]2O (some centres not stated) | 960 nM | 200 nM | > 10000 nM |  | 
13 | CCCCN(C)C(=O)CCCCCCC[C@@H]1CC2CC(=O)CC[C@]2(C)[C@H]2CC[C@]3(C)[C@@H](O)CC[C@H]3[C@H]12 (some centres not stated) | 280 nM | 280 nM | 340 nM |  | 
14 | CCCCN(C)C(=O)CCCCCCCCCCC[C@@H]1CC2CC(=O)CC[C@]2(C)[C@H]2CC[C@]3(C)[C@@H](O)CC[C@H]3[C@H]12 (some centres not stated) | 9900 nM | 9900 nM | 3500 nM |  | 
15 | C[C@]12CCC(=O)C[C@@H]1CC(CCCCCCCC(=O)N1CCOCC1)[C@@H]1[C@@H]2CC[C@]2(C)[C@@H](O)CC[C@@H]12 (some centres not stated) |  | > 10000 nM |  |  | 
16 | C[C@]12CC[C@H]3[C@@H]([C@H](CCCCCCCCCCC[S+]([O-])CCCC(F)(F)C(F)(F)F)CC4CC(=O)CC[C@@]43C)[C@@H]1CC[C@@H]2O (some centres not stated) | > 10000 nM | > 10000 nM | > 10000 nM |  | 
17 | C[C@]12CCC(=O)C[C@@H]1CC(CCCCCCCC(=O)N1CCCCC1)[C@@H]1[C@@H]2CC[C@]2(C)[C@@H](O)CC[C@@H]12 (some centres not stated) |  | > 10000 nM |  |  | 
18 | CNC(=O)CCCCCCCC1C[C@H]2CC(=O)CC[C@]2(C)[C@H]2CC[C@]3(C)[C@@H](O)CC[C@H]3[C@H]12 (some centres not stated) | 710 nM | > 10000 nM | 480 nM |  | 
19 | CC(C)N(C)C(=O)CCCCCCCC1C[C@H]2CC(=O)CC[C@]2(C)[C@H]2CC[C@]3(C)[C@@H](O)CC[C@H]3[C@H]12 (some centres not stated) | 430 nM | > 10000 nM | 420 nM |  | 
20 | C[C@]12CC[C@H]3[C@@H]([C@H](CCCCC[S+]([O-])CCCC(F)(F)C(F)(F)F)CC4CC(=O)CC[C@@]43C)[C@@H]1CC[C@@H]2O (some centres not stated) | 6800 nM | 16 nM | > 10000 nM |  | 
21 | CN(C)C(=O)CCCCCCC1C[C@H]2CC(=O)CC[C@]2(C)[C@H]2CC[C@]3(C)[C@@H](O)CC[C@H]3[C@H]12 (some centres not stated) | 110 nM | 490 nM | 200 nM |  | 
22 | CCN(CC)C(=O)CCCCCCC1C[C@H]2CC(=O)CC[C@]2(C)[C@H]2CC[C@]3(C)[C@@H](O)CC[C@H]3[C@H]12 (some centres not stated) | 330 nM | 1700 nM | 530 nM |  | 
23 | CCN(C)C(=O)CCCCCCCC1C[C@H]2CC(=O)CC[C@]2(C)[C@H]2CC[C@]3(C)[C@@H](O)CC[C@H]3[C@H]12 (some centres not stated) | 660 nM | > 10000 nM | 420 nM |  | 
24 | CCCCCCN(CCCCCC)C(=O)CCCCCCCC1C[C@H]2CC(=O)CC[C@]2(C)[C@H]2CC[C@]3(C)[C@@H](O)CC[C@H]3[C@H]12 (some centres not stated) | > 10000 nM | > 10000 nM | > 10000 nM |  | 
25 | CCCNC(=O)CCCCCCCC1C[C@H]2CC(=O)CC[C@]2(C)[C@H]2CC[C@]3(C)[C@@H](O)CC[C@H]3[C@H]12 (some centres not stated) | 1600 nM | > 10000 nM | 1800 nM |  | 
26 | C[C@]12CC[C@H]3[C@@H]([C@H](CCCCCCCCC[S+]([O-])CCCC(F)(F)C(F)(F)F)CC4CC(=O)CC[C@@]43C)[C@@H]1CC[C@@H]2O (some centres not stated) | 110 nM | 490 nM | 2900 nM |  | 
27 | CCCCN(C)C(=O)CCCCCCCCC[C@@H]1CC2CC(=O)CC[C@]2(C)[C@H]2CC[C@]3(C)[C@@H](O)CC[C@H]3[C@H]12 (some centres not stated) | 570 nM | 570 nM | 1800 nM |  | 
28 | CCN(CC)C(=O)CCCCCCCC1C[C@H]2CC(=O)CC[C@]2(C)[C@H]2CC[C@]3(C)[C@@H](O)CC[C@H]3[C@H]12 (some centres not stated) | 120 nM | > 10000 nM | 300 nM |  | 
29 | CN(Cc1ccccc1)C(=O)CCCCCCCC1C[C@H]2CC(=O)CC[C@]2(C)[C@H]2CC[C@]3(C)[C@@H](O)CC[C@H]3[C@H]12 (some centres not stated) |  | > 10000 nM |  |  | 
